Results reported in article PMC11175446 (2024).

Experiments:
[1] = tested on: 2xF30-Broccoli RNA (Bi), transcript of T7 promoter-Broccoli template without operator (RNA, aptamer) UUGCCAUGUGUAUGUGGGAGACGGUCGGGUCCAGAUAUUCGUAUCUGUCGAGUAGAGUGUGGGCUCCCACAUACUCUGAUGAUCCUUCGGGAUCAUUCAUGGCAA; test: fluorescence turn-on during in vitro transcription; settings: 25 mM NaCl, 8 mM MgCl2; 40 mM Tris-HCl pH 8.0, 2 mM spermidine, 5 mM DTT, 34 °C, 20 μM dye; NTPs, T7 RNAP present
[2] = tested on: Broccoli run-off transcript of the 251 bp T7 promoter-O1-Broccoli template (RNA, aptamer) GGCAAUUGUGAGCGGAUAACAAUUCUAGAUUGCCAUGUGUAUGUGGGAGACGGUCGGGUCCAGAUAUUCGUAUCUGUCGAGUAGAGUGUGGGCUCCCACAUACUCUGAUGAUCCUUCGGGAUCAUUCAUGGCAAGGAUCCG; test: fluorescence turn-on during in vitro transcription; settings: 25 mM NaCl, 8 mM MgCl2; 40 mM Tris-HCl pH 8.0, 2 mM spermidine, 5 mM DTT, 34 °C, 20 μM dye; NTPs, T7 RNAP present

binding [1]: yes
binding [2]: yes
SMILES: CC1=N/C(=C\c2cc(F)c(O)c(F)c2)C(=O)N1CC(F)(F)F
